# Laboratory results reported in patent US6238693A, “Transdermal administration of fenoldopam” (priority 1999, dated 2001).
# Structures can show the parent of a compound that is named as a salt.
# Experiments:
# guinea pigs [1] = conditions: guinea pig, in vivo
# Method: (§1) Dermal sensitization studies in guinea pigs were done to assess the contact sensitization of fenoldopam mesylate and of R-fenoldopam mesylate, the active enantiomer, when administered topically and intradermally. Each of the drugs, the fenoldopam mesylate and the R-fenoldopam mesylate, were administered to the animals from a 50:50 mixture of propylene glycol/water, at drug concentrations of 40 mg/mL, 30 mg/mL, 20 mg/mL, and 10 mg/mL.
# As described in Example 2, sixteen animals were divided into 4 groups of 4 animals each. The first group of 4 animals (Group 1) were treated with a topical application of fenoldopam mesylate at the four concentrations. Each animal, after having the hair removed from its back and sides, received each of the concentrations applied at four separate sites. The animals in Group 2 were similarly treated, except with R-fenoldopam. After 24 hours of exposure to the test material, the application site was scored on a four-point scale for dermal reactions (0=no reaction, 1=moderate mild redness, 2=moderate and diffuse redness, 3=intense redness and swelling). […]
# For the topical application, the test materials were placed on 2 cm×2 cm pieced of filter paper to saturation and allowed to remain in place on the animal for 24 hours. […] The sites were scored on the following four-point scale for dermal reactions at approximately 24 and 48 hours after patch removal: […]
# guinea pigs [2] = conditions: guinea pig, in vivo; remark: listed apart in the source
# Method: as §1
# Dermal sensitization was also evaluated following intradermal injection of fenoldopam mesylate and R-fenoldopam at the same concentrations used in the topical screening. As described in Example 2, four animals (Group 3) were treated with […] injections of fenoldopam mesylate at four injection sites, one for each of the four concentrations. Four animals in Group 4 were similarly injected with R-fenoldopam at the four concentrations. 24 hours after injection, the injection sites were scored for dermal reaction on the 4-point scale.
# Guinea pigs (strain: CRl (HA)BR) were obtained from Charles River Laboratories. The animals were young adults, weighing between 350-550 g at the start of the study. Each animals was housed individually and fed ad libitum a certified
# A stock solution of 50% propylene glycol/50% sterile water mixture was prepared as the control material and for preparation of the test materials.
# On each day of testing, a 40 mg/mL fenoldopam mesylate or R-fenoldopam mesylate in 50% propylene glycol/50% sterile water solution was prepared using the stock solution. The 40 mg/mL drug solution was diluted with the stock solution to prepare solutions of 30 mg/mL, 20 mg/mL and 10 mg/mL of both the racemate and the enantiomer. All test materials were used within 8 hours of preparation and were stored at room temperature until administered.
# Sixteen guinea pigs were divided into the following groups:
# For the intradermal injection, the four animals in Group 3 were treated with intradermal injection of fenoldopam mesylate and the four animals in Group 4 were treated with intradermal injections of R-fenoldopam mesylate. The test materials were administered at concentrations of 40 mg/mL, 30 mg/mL, 20 mg/mL and 10 mg/mL by injecting each at a volume of 0.1 mL into a separate site on the shaved back of the test animal. The areas of intradermal injections were evaluated for dermal irritation on the four-point scale given above at 24 and 48 hours after injection. The test sites were clipped with an electric clipper before the first reading.
# guinea pigs [3] = assay: Dermal sensitization challenge study (definitive study); format: in vivo, guinea pig; conditions: 40 mg/mL challenge
# Method: Based on the results from this initial phase of dermal sensitization studies, a definitive challenge dermal sensitivity study was conducted, as described in Example 3. Briefly, thirty animals were divided into three test groups of 10 animals each. The animals in Group 5 were treated with fenoldopam mesylate, the animals in Group 6 with R-fenoldopam mesylate and the animals in Group 7 were treated with vehicles alone as a control.
# All animals were initially treated with intradermal injections of the test compound, e.g., fenoldopam mesylate (Group 5) or R-fenoldopam (Group 6), in a 1:1 mixture of propylene glycol:water or in a mixture of Freund's Complete Adjuvent (FCA) in propylene glycol:water. The drug concentration in these vehicle mixtures was 40 mg/mL (see Table 4 in Example 3). The animals were also treated with FCA in water alone. The animals in Group 7 received the same three formulations, except for the absence of fenoldopam.
# One week after the intradermal injections, each of the test formulations was applied topically to the injection site. The topical application, in the form of a saturated patch of filter paper, was left in place for 48 hours.
# Two weeks after the topical application, the animals in groups 5 and 6 received a challenge dose of 40 mg/mL of the test compound in PG:water, applied topically to a naive site. On the opposing side of the animal, the vehicle alone (PG:water) was applied. The animals in Group 7 received the vehicle alone on both sides. 24 hours after the topical challenge dose, the site was scored for dermal sensitization using the four-point scale given above.
# Thirty guinea pigs were obtained and cared for as set forth in Example 2.
# On Day 1 of the study, an area approximately 4 cm×6 cm was clipped with an electric clipper along the midline over the shoulder region of each animal in the test and control groups. Two rows of three 0.1 mL intradermal injections were made within the boundaries of a 2 cm×4 cm area, one row on each side of the midline. The injections in each row were as follows: at the anterior site, the animal received 0.1 mL of the prepared Freund's Complete Adjuvent (FCA) solution (Groups 5, 6 and 7); at the medial site, the animals received 0.1 mL of the respective prepared test material (Groups 5 and 6) or vehicle control (Group 7); and at the posterior site, the animals received 0.1 mL of the respective test material (drug in PG:water) further mixed with FCA solution (Groups 5 and 6) or a 1:1 dilution of the PG:water vehicle control in FCA.
# On Day 7, the area of intradermal injection on each animal in Groups 5, 6 and 7 was clipped free of hair with an electric clipper. The clipped area was treated with 10% w/w sodium lauryl sulfate in petrolatum. […]
# [4] = cited from earlier work
# [5] = system: dopamine type-1 receptors; conditions: cited from earlier work
# [6] = exposure to the atmosphere during storage; cited from earlier work
# [7] = cited from earlier work; remark: listed apart in the source
# [8] = intravenous infusion, therapeutic dosages
structure (smiles),measurement,setting,value
Oc1ccc(C2CNCCc3c2cc(O)c(O)c3Cl)cc1 (racemic) [fenoldopam mesylate],"Dermal Reactions, topical application",guinea pigs [1],0
same,"Dermal Reactions, intradermal injection",guinea pigs [2],2
same,appearance of injection site (footnote),guinea pigs [2],Whitish in color
same,"animals scored as having ""scattered mild redness""",guinea pigs [3],6 of the 10 animals
same,dermal sensitization (summary),guinea pigs [3],moderate dermal sensitization
Oc1ccc(C2CNCCc3c2cc(O)c(O)c3Cl)cc1 (racemic) [racemic fenoldopam],average clearance (CL),"[4]; human, in vivo, iv",2.6 L/min
same,half-life (t1/2),"[4]; human, in vivo, iv",4.6 min
Oc1ccc([C@H]2CNCCc3c2cc(O)c(O)c3Cl)cc1 [R-fenoldopam mesylate],"Dermal Reactions, topical application",guinea pigs [1],0
same,"Dermal Reactions, intradermal injection",guinea pigs [2],2
same,appearance of injection site (footnote),guinea pigs [2],Whitish in color
same,"animals scored as having ""scattered mild redness""",guinea pigs [3],5 of the 10 animals
same,dermal sensitization (summary),guinea pigs [3],moderate dermal sensitization
Oc1ccc([C@H]2CNCCc3c2cc(O)c(O)c3Cl)cc1 [R-fenoldopam],biological activity of enantiomer,[5],the activity of the drug is due to the R-enantiomer
Oc1ccc([C@@H]2CNCCc3c2cc(O)c(O)c3Cl)cc1 [S-fenoldopam],biological activity of enantiomer,[5],relatively inactive
Oc1ccc(C2CNCCc3c2cc(O)c(O)c3Cl)cc1 (stereo not shown) [fenoldopam free base],oxidation,[6],readily oxidized
"Oc1ccc(C2CNCCc3c2cc(O)c(O)c3Cl)cc1 (stereo not drawn) [fenoldopam, 6-chloro-2,3,4,5-tetrahydro-l-(4-hydroxyphenyl)-1H-3-benzazepine-7,8-diol]",time to achieve dose-dependent steady-state plasma concentration,"[4]; intravenous, about 0.01-1.6 μg/kg/min for up to 48 hours",about 20 minutes
same,first-pass metabolism,[4]; via sulfation and glucuronidation,high first-pass metabolism
same,blood pressure,[7]; in vivo,decrease in blood pressure
same,duration of antihypertensive and renal effects,[7]; in vivo,short lasting
same,"renal vasodilation, diuresis and natriuresis",[7]; in vivo,"renal vasodilation, diuresis and natriuresis"
same,"creatinine clearance, urinary flow and excretion of sodium and potassium",[7]; [8],"increasing creatinine clearance, urinary flow and excretion of sodium and potassium"
same,glomerular filtration rate,[7]; [8],maintaining glomerular filtration rate
same,renal blood flow,[7]; [8],increases renal blood flow
same,renal vascular resistance,[7]; [8],decreases renal vascular resistance
same,dopamine agonism / peripheral vasodilation,[5]; via stimulation of dopamine type-1 receptors,dopamine agonist that causes peripheral vasodilation
